Measurements taken from patent US12054471B2, “Thiocycloheptyne derivatives and their use” (Cristal Delivery B.V., priority 2018, dated 2024).

Columns and labels:
[1] = Reaction kinetics with benzylazide monitored by QTOF-ESI mass spectrometry to determine rate constant kt; assay type: physicochemical; settings: 1.0 eq benzylazide, ACN/water/acetic acid (3:1:0.01%), MS
Protocol: The kt value for the conversion of benzylazide with BCN-OH and TMTHSI was investigated by monitoring the reactions via mass spectrometry. In this study, QTOF mass spectrometry with an ESI source coupled to it, was utilized as a method of measurements. In detail, the alkyne (TMTSHI or BCN-OH in ACN/water/acetic acid (3:1:0.01%) was reacted with 1.0 eq benzylazide and reaction kinetics were measured using MS. The results of the measurements are included in FIG. 55. The measured kt value for TMTHSI in the reaction with benzylazide is 0.83 M^−1S^−1, which is approximately 7 times faster than BCN-OH (0.12 M^−1S^−1).

[2] = Reaction kinetics of model click reaction with benzylazide, measured by NMR (CDCl3); assay type: physicochemical
Protocol: The alkyne (TMTSHI or BCN-OH) was reacted with 1.3 eq benzylazide and reaction kinetics were measured using NMR (CDCl3). Conversion of TMTHSI with benzyl azide reached 79% after 225 seconds, the reaction with BCN-OH took about 40-fold longer (9312 seconds). The reaction conversion (%) is calculated based on triazole signals, taking the plateau of triazole signal at the end of reaction as 100% level=when all TMTHSI or BCN-OH fully reacted with benzylazide. The results of the measurements are included in FIG. 17A.

[3] = Storage stability as a powder, checked by 1H-NMR and LC/MS; assay type: physicochemical; settings: stored as a powder at both light and dark locations under atmospheric pressure; 1H-NMR and LC/MS (SC_BASE)
Description: TMTHSI was proven to be stable during storage.

[4] = Dommerholt et al.; cited from earlier work

compound still in tact after storage [3] | Structure (SMILES) | kt value in the reaction with benzylazide [1] | time to reach 79% conversion with benzyl azide ([2]; 1.3 eq benzylazide, CDCl3, NMR) | further results
– | OCC1[C@H]2CCC#CCC[C@@H]12 (some centres unmarked) [BCN-OH, reference compound] | 0.12 M^−1S^−1 | 9312 s | reaction time relative to TMTHSI (fold longer) ([2]; 1.3 eq benzylazide, CDCl3, NMR): about 40 fold
≥ 10 months | CC1(C)C#CC(C)(C)CS(=N)(=O)C1 [Compound 3, 1-imino-3,3,6,6-tetramethyl-4,5-didehydro-2,3,6,7-tetrahydro-1H-1λ^6-thiepine 1-oxide] | 0.83 M^−1S^−1 | 225 s | rate relative to BCN-OH (times faster) [1]: approximately 7 times; Conversion with benzyl azide ([2]; after 225 seconds, 1.3 eq benzylazide, CDCl3, NMR, based on triazole signals): 79%; comparison of reaction kinetics with BCN-OH (FIG. 17A) ([2]; reaction with benzylazide, NMR): significantly faster than BCN-OH
≥ 4 months | CC1(C)C#CC(C)(C)CS(=O)(=NC(=O)ON2C(=O)CCC2=O)C1 [Compound 12, 2,5-dioxopyrrolidin-1-yl (3,3,6,6-tetramethyl-1-oxido-4,5-didehydro-2,3,6,7-tetrahydro-1λ^6-thiepan-1-ylidene)carbamate] | – | – | –
– | CC1(C)C#CC(C)(C)CSC1 [TMTH, 3,3,6,6-tetramethylthiacycloheptyne] | – | – | stability of TMTH [4]: poor stability
